Measured values published in patent US7915405B2, “2,4-disubstituted-5-aminocarbonyl-1,3-thiazole derivatives for therapeutic agent of antiinflammatory disease, method thereof for preparation, therapeutic agent for antiinflammatory disease induced by SPC activity containing the same” (Korea Research Institute of Chemical Technology, priority 2008, dated 2011).

What was measured:
[1] = tested on: human umbilical vein endothelial cells (HUVECs); assay: Inhibitory effect on chemotactic cell migration induced by SPC (Boyden chamber analysis); type: cell-based; conditions: HUVEC
Description: Recently, it was reported that SPC plays an important role in chemotactic cell migration, similar to vascular endothelial cell growth (VEGF) [Boguslawski et al, Biochem Biophys Res Commun., 2000, 272, 603-609]. The phenomenon in which cells migrate in a living body by special cytokines or kemokines is a key step in a process, such as migration of immune cells to sites of inflammation, or angiogenesis caused by endothelial cells. Accordingly, the effect of the compounds prepared in the above Examples on chemotactic cell migration induced by SPC was tested by Boyden chamber analysis.
First, a 25×80 mm polycarbonate membrane (Neuro Probe, Inc.) having 8 μm pores was overnight coated by immersion in a solution containing 0.01% gelatin and 0.1% acetic acid solution and was naturally dried at room temperature.
Meanwhile, human umbilical vein endothelial cells (HUVECs) cultured in complete EBM-2 medium containing 2% fetal bovine serum were incubated in EBM-2 medium (Cambrex, Catalog No. CC-3121) containing no fetal bovine serum for 4 hours to achieve serum starvation, and then the cells were harvested with trypsin/EDTA solution. The HUVEC cells were suspended in EBM-2 medium containing 0.1% fetal bovine serum. Then, the cells were dispensed in a silicon-coated Eppendorf tube, the compound of Example 1-31 as a test drug was added to the cells in amounts of 0.1, 1 and 10 μg/ml, and the cells were treated with the compound at 37° C. for 30 minutes. 27 μL of EBM-2 medium containing 10 μM SPC or EBM-2 medium containing no SPC was dispensed in each well of the lower chamber of the Boyden chamber, and a gelatin-coated membrane was placed in the lower chamber, such that the glossy surface of the membrane was faced downward. A gasket was placed on the membrane, and then the upper chamber was assembled. 5×10^4 (56 μl) HUVEC cells treated with the drug were dispensed in each well of the upper chamber and incubated in a CO2 incubator at 37° C. for 8 hours. The membrane was separated, stained with Diff-Quik dye (Sysmex Corporation), washed with deionized water, and then attached to a slide glass, such that the glossy surface was faced downward. The cells attached onto the membrane were carefully wiped with kimwipes or cotton swabs, and then each well was photographed in five fields (200× magnification), and the cells were counted. Inhibition of chemotactic cell migration was calculated according to the following equation 2, and the results are shown in Table 3 below. Inhibition %=(group treated with SPC alone−group treated with test drug)/(group treated with SPC alone−group not treated with SPC)×100 [Equation 2]

[2] = tested on: TPA-induced inflammation model; assay: Control of inflammatory reaction in mouse TPA-induced inflammation model (ear weight and MPO activity); type: in vivo; conditions: ICR mice
Procedure: In order to examine an inhibitory effect on inflammatory reactions, the following test was carried out using tetradecanoyl phorbol acetate (hereinafter referred to as “TPA”)-induced inflammation model.
The TPA-induced inflammation model was a test method which has been widely used to test inflammatory reaction mechanisms and the effect of inhibitory substances [De Young L M et al., Agents and Actions, 1989, 26, 335-341]. When TPA which is a substance causing an inflammatory reaction is applied to the ear of a test subject, erythema and edema occur. Such inflammatory reactions are measurable through the increase in the activity of myeloperoxidase (MPO) which is essential for bacterial invasion into white blood cells.
Forty 6-week-old ICR mice were prepared, and 20 μl of a TPA solution (Sigma Aldrich Korea) obtained by dissolving TPA in acetone at a concentration of 125 μg/ml was applied to the left ear of each animal. At 1 hour after the application of TPA, 20 μl of each of acetone, the compounds of Examples dissolved in acetone at a concentration of 0.3%, and hydrocortisone (Sigma Aldrich Korea) dissolved in acetone at a concentration of 0.3% was applied to the TPA-applied site, and at 6 hours after the application of TPA, it was applied again to the same site in the same amount (20 μl). At 24 hours after the application of TPA, the mice were sacrificed by cervical dislocation, and the left ear was collected in a given width and measured for weight and MPO activity. Inhibition % of inflammatory reactions was calculated according to the following equation 3, and the results are shown in Table 4 below. Inhibition %=(group treated with TPA alone−group treated with test drug)/(group treated with TPA alone−group not treated with TPA)×100 [Equation 3]

[3] = tested on: NIH 3T3 cells; assay: Control of cellular division and proliferation induced by SPC ([3H]-thimidine incorporation); type: cell-based
Procedure: Treatment of cells with sphingosylphosphorylcholine (SPC) can induce excessive cellular division and proliferation, thus causing pathological skin conditions [Desai, Biochem. Biophys. […] Accordingly, the compounds prepared in the above Examples were tested for an effect on cellular division and proliferation induced by SPC.
First, 1×10^5 (usually 1×10^4˜10^5) NIH 3T3 cells (American Type Culture Collection, Manassas, Va., USA) were dispensed and cultured on a culture plate, and then cultured in RPMI medium containing no fetal bovine serum for 24 hours to achieve serum starvation. The cells were treated with the compounds prepared in the above Examples, and FTY720, a sphingosine-1-phosphate (S1P) agonist, at concentrations of 0.001 μM, 0.01 μM, 0.1 μM and 1 μM, and were incubated for 30 minutes. Then, SPC (Biomol, Plymouth Meeting, Pa., USA) was added thereto at a concentration of 7 μM, and the cells were incubated at 37° C. for 24 hours. […] Proliferation %=(group treated with test drug−group not treated with SPC)/(group treated with SPC alone−group not treated with SPC)×100 [Equation 1]

## COc1ccccc1N1CCN(c2nc(NC(=O)C(C)(C)C)c(C(=O)N3CCCCC3)s2)CC1 [Example 1-31, N-{2-[4-(2-methoxyphenyl)-piperazin-1-yl]-5-(piperidine-1-carbonyl)thiazol-4-yl}pivalamide]
[1]; Boyden chamber
  inhibition of chemotactic cell migration caused by SPC (in words): strongly inhibited
[1]; Homo sapiens, 0.1 μg/ml, 10 μM SPC, 8 hours
  inhibition at 0.1 µg/mL: 44%
[1]; Homo sapiens, 1 μg/ml, 10 μM SPC, 8 hours
  inhibition at 1 µg/mL: 58%
[1]; Homo sapiens, 10 μg/ml, 10 μM SPC, 8 hours
  inhibition at 10 µg/mL: 69%
[2]; 0.3% in acetone, 20 μl on the ear at 1 hour and 6 hours after TPA, measured at 24 hours
  Inhibition (%) of inflammatory reaction (ear edema, ear weight): 84%
[2]; 0.3% topical, compared with hydrocortisone
  inhibition of TPA-induced inflammatory reactions, ear edema and MPO activity (in words): significantly inhibited
[2]; value in brackets, 0.3% in acetone, 20 μl on the ear at 1 hour and 6 hours after TPA, MPO activity of ear at 24 hours
  Inhibition (%) (MPO inhibition): 78%
[3]; Mus musculus, NIH3T3, serum starved, compound 0.001-1 μM 30 minutes, then SPC 7 μM, 24 hours, read-out: antagonistic effect on SPC IC50
  IC50: 5.42 nM
[3]; SPC 7 μM
  inhibition of cellular division and proliferation induced by SPC (in words): dose-dependently inhibited
